Results reported in patent US6737383B1, “Herbicidal oxadiazolidines” (priority 1999, dated 2004).

How the values were obtained:
rice = assay: Test B flood test rice; format: in vivo, Oryza sativa
How it was run: (§1)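 Read-out is a visual response score from 0 (no effect) to 10 (complete control), assigned by comparison with untreated controls. Treatment was applied at the 2-leaf stage, and plants stayed in the greenhouse for twelve to sixteen days before scoring.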

surinam grass = assay: Test B pre/postemergence surinam grass; format: in vivo, Brachiaria decumbens
How it was run: (§2)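 Test chemicals in a non-phytotoxic solvent mixture with surfactant were sprayed preemergence onto planted seeds and postemergence onto plants 2 to 18 cm tall (1- to 4-leaf stage). After twelve to sixteen days in a greenhouse, injury was visually rated against untreated controls from 0 (no effect) to 10 (complete control).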

pigweed = assay: Test B pre/postemergence pigweed; format: in vivo, Amaranthus retroflexus
How it was run: as §2

wild oat = assay: Test B pre/postemergence wild oat; format: in vivo, Avena fatua
How it was run: as §2

morningglory = assay: Test B pre/postemergence morningglory; format: in vivo, Ipomoea hederacea; conditions: for Morningglory plant response rating: Postemergence; for Plant response rating, Morningglory: Preemergence
How it was run: as §2

giant foxtail = assay: Test B pre/postemergence giant foxtail; format: in vivo, Setaria faberii
How it was run: as §2

soybean = assay: Test B pre/postemergence soybean; format: in vivo, Glycine max
How it was run: as §2

wheat = assay: Test B pre/postemergence wheat; format: in vivo, Triticum aestivum
How it was run: as §2

corn = assay: Test B pre/postemergence corn; format: in vivo, Zea mays; conditions: for Corn plant response rating: Postemergence; for Plant response rating, Corn: Preemergence
How it was run: as §2

crabgrass = assay: Test B pre/postemergence crabgrass; format: in vivo, Digitaria sanguinalis
How it was run: as §2

smallflower flatsedge = assay: Test B flood test smallflower flatsedge; format: in vivo, Cyperus difformis
How it was run: as §1

velvetleaf = assay: Test B pre/postemergence velvetleaf; format: in vivo, Abutilon theophrasti
How it was run: as §2

bedstraw = assay: Test B pre/postemergence bedstraw; format: in vivo, Galium aparine; conditions: for Bedstraw plant response rating: Postemergence; for Plant response rating, Bedstraw: Preemergence
How it was run: as §2

duck salad = assay: Test B flood test duck salad; format: in vivo, Heteranthera limosa
How it was run: as §1

blackgrass = assay: Test B pre/postemergence blackgrass; format: in vivo, Alopecurus myosuroides
How it was run: as §2

purple nutsedge = assay: Test B pre/postemergence purple nutsedge; format: in vivo, Cyperus rotundus
How it was run: as §2

[1] = Postemergence, Rate 62 g/ha, scale 0 to 10, 0 is no effect, 10 is complete control
[2] = Rate 125 g/ha, Postemergence section (flood test species), scale 0 to 10, 0 no effect, 10 complete control
[3] = Rate 500 g/ha, listed under Postemergence (flood test species), scale 0 to 10, 0 no effect, 10 complete control
[4] = flood test, listed under Postemergence, Rate 250 g/ha, scale 0 to 10, 0 no effect, 10 complete control
[5] = Postemergence, Rate 250 g/ha, scale 0 to 10, 0 no effect, 10 complete control
[6] = Preemergence, Rate 62 g/ha, scale 0 to 10, 0 is no effect, 10 is complete control
[7] = Preemergence, Rate 125 g/ha, scale 0 to 10 (0 no effect, 10 complete control)
[8] = Preemergence, Rate 250 g/ha, scale of 0 to 10 where 0 is no effect and 10 is complete control
[9] = Preemergence, Rate 500 g/ha, scale 0 (no effect) to 10 (complete control)
[10] = Rate 125 g/ha, Postemergence, scale 0 to 10, 0 no effect, 10 complete control
[11] = Rate 500 g/ha, Postemergence, scale 0 to 10, 0 no effect, 10 complete control
[12] = Rate 62 g/ha, scale 0 to 10, 0 is no effect, 10 is complete control
[13] = Rate 250 g/ha, scale 0 to 10, 0 no effect, 10 complete control
[14] = Rate 125 g/ha, scale 0 to 10 (0 no effect, 10 complete control)
[15] = Rate 250 g/ha, scale of 0 to 10 where 0 is no effect and 10 is complete control
[16] = Rate 125 g/ha, scale 0 to 10, 0 no effect, 10 complete control
[17] = Rate 500 g/ha, scale 0 to 10, 0 no effect, 10 complete control

CCc1cccc(C)c1-n1c(=O)on(C(=O)N(c2ccc(F)cc2)C(C)C)c1=O [Compound 52]
4: Giant foxtail plant response rating (giant foxtail; [11]) | Corn plant response rating (corn; [17]) | Blackgrass plant response rating (blackgrass; [9])
3: Giant foxtail plant response rating (giant foxtail; [5]) | Plant response rating, Giant foxtail (giant foxtail; [6]) | Giant foxtail plant response rating (giant foxtail; [10]) | Corn plant response rating (corn; [13]) | Plant response rating, Blackgrass (blackgrass; [8])
5: Plant response rating, Giant foxtail (giant foxtail; [7]) | Crabgrass plant response rating (crabgrass; [5]) | Bedstraw plant response rating (bedstraw; [16])
2: Soybean plant response rating (soybean; [1]) | Soybean plant response rating (soybean; [5]) | Soybean plant response rating (soybean; [10]) | Soybean plant response rating (soybean; [11])
1: B. signalgrass plant response rating (surinam grass; Rate 500 g/ha, Postemergence, scale of 0 to 10 where 0 is no effect and 10 is complete control) | Plant response rating, Redroot pigweed (pigweed; [8]) | Wild oats plant response rating (wild oat; [5]) | Wild oats plant response rating (wild oat; [9]) | Wild oats plant response rating (wild oat; [11]) | Morningglory plant response rating (morningglory; [12]) | Morningglory plant response rating (morningglory; [13]) | Morningglory plant response rating (morningglory; [16]) | Morningglory plant response rating (morningglory; [17]) | Crabgrass plant response rating (crabgrass; [1]) | Plant response rating, Crabgrass (crabgrass; [7]) | Crabgrass plant response rating (crabgrass; [10]) | Bedstraw plant response rating (bedstraw; [12])
10: Giant foxtail plant response rating (giant foxtail; [9]) | Crabgrass plant response rating (crabgrass; [9])
8: Bedstraw plant response rating (bedstraw; [13])
6: B. signalgrass plant response rating (surinam grass; [9]) | Redroot pigweed plant response rating (pigweed; [9]) | Plant response rating, Crabgrass (crabgrass; [8]) | Crabgrass plant response rating (crabgrass; [11])
7: Plant response rating, Giant foxtail (giant foxtail; [8])
0: Rice plant response rating (rice; [1]) | Rice plant response rating (rice; [2]) | Rice plant response rating (rice; [3]) | Rice plant response rating (rice; [4]) | B. signalgrass plant response rating (surinam grass; [1]) | B. signalgrass plant response rating (surinam grass; [5]) | Plant response rating, B. signalgrass (surinam grass; [6]) | Plant response rating, B. signalgrass (surinam grass; [7]) | Plant response rating, B. signalgrass (surinam grass; [8]) | B. signalgrass plant response rating (surinam grass; [10]) | Redroot pigweed plant response rating (pigweed; [1]) | Redroot pigweed plant response rating (pigweed; [5]) | Plant response rating, Redroot pigweed (pigweed; [6]) | Plant response rating, Redroot pigweed (pigweed; [7]) | Redroot pigweed plant response rating (pigweed; [10]) | Redroot pigweed plant response rating (pigweed; [11]) | Wild oats plant response rating (wild oat; [1]) | Plant response rating, Wild oats (wild oat; [7]) | Plant response rating, Wild oats (wild oat; [8]) | Wild oats plant response rating (wild oat; [10]) | Plant response rating, Morningglory (morningglory; [12]) | Plant response rating, Morningglory (morningglory; [14]) | Plant response rating, Morningglory (morningglory; [15]) | Giant foxtail plant response rating (giant foxtail; [1]) | Plant response rating, Soybean (soybean; [6]) | Plant response rating, Soybean (soybean; [7]) | Plant response rating, Soybean (soybean; [8]) | Soybean plant response rating (soybean; [9]) | Wheat plant response rating (wheat; [1]) | Wheat plant response rating (wheat; [5]) | Plant response rating, Wheat (wheat; [6]) | Plant response rating, Wheat (wheat; [7]) | Plant response rating, Wheat (wheat; [8]) | Wheat plant response rating (wheat; [9]) | Wheat plant response rating (wheat; [10]) | Wheat plant response rating (wheat; [11]) | Corn plant response rating (corn; [12]) | Plant response rating, Corn (corn; [12]) | Plant response rating, Corn (corn; [14]) | Plant response rating, Corn (corn; [15]) | Corn plant response rating (corn; [16]) | Plant response rating, Crabgrass (crabgrass; [6]) | S. Flatsedge plant response rating (smallflower flatsedge; [1]) | S. Flatsedge plant response rating (smallflower flatsedge; [2]) | S. Flatsedge plant response rating (smallflower flatsedge; [3]) | S. Flatsedge plant response rating (smallflower flatsedge; [4]) | Velvetleaf plant response rating (velvetleaf; [1]) | Velvetleaf plant response rating (velvetleaf; [5]) | Plant response rating, Velvetleaf (velvetleaf; [6]) | Plant response rating, Velvetleaf (velvetleaf; [7]) | Plant response rating, Velvetleaf (velvetleaf; [8]) | Velvetleaf plant response rating (velvetleaf; [9]) | Velvetleaf plant response rating (velvetleaf; [10]) | Velvetleaf plant response rating (velvetleaf; [11]) | Plant response rating, Bedstraw (bedstraw; [12]) | Plant response rating, Bedstraw (bedstraw; [14]) | Plant response rating, Bedstraw (bedstraw; [15]) | Ducksalad plant response rating (duck salad; [1]) | Ducksalad plant response rating (duck salad; [2]) | Ducksalad plant response rating (duck salad; [3]) | Ducksalad plant response rating (duck salad; [4]) | Blackgrass plant response rating (blackgrass; [1]) | Blackgrass plant response rating (blackgrass; [5]) | Plant response rating, Blackgrass (blackgrass; [6]) | Plant response rating, Blackgrass (blackgrass; [7]) | Blackgrass plant response rating (blackgrass; [10]) | Blackgrass plant response rating (blackgrass; [11]) | Nutsedge plant response rating (purple nutsedge; [1]) | Nutsedge plant response rating (purple nutsedge; [5]) | Plant response rating, Nutsedge (purple nutsedge; [6]) | Plant response rating, Nutsedge (purple nutsedge; [7]) | Plant response rating, Nutsedge (purple nutsedge; [8]) | Nutsedge plant response rating (purple nutsedge; [9]) | Nutsedge plant response rating (purple nutsedge; [10]) | Nutsedge plant response rating (purple nutsedge; [11])
